Test results as given in ChEMBL document CHEMBL4616683, “Inhibitors of Hypoxia-Inducible Factors as Treatment for Cancer” (ACS Med Chem Lett, 2020).

Experiments:
[1] = target: T1, Endothelial PAS domain-containing protein 1 (Homo sapiens, UniProt Q99814)
Description: Inhibition of human recombinant His6Gb1-tagged HIF2alpha PAS B domain (240 to 350 residues)/human recombinant His6/FLAG-tagged ARNT PAS B domain (356 to 470 residues) interaction incubated for 15 mins by AlphaScreen assay

[2] = target: T1, Endothelial PAS domain-containing protein 1; remark: listed apart in the source
Description: Inhibition of HIF2-alpha in human 786-0 cells harboring HRE-Luc2P reporter construct incubated for 48 hrs by ONE-Glo EX reagent based luminescence assay

T1 sequence (Q99814 whole entry, the tested form may be a part): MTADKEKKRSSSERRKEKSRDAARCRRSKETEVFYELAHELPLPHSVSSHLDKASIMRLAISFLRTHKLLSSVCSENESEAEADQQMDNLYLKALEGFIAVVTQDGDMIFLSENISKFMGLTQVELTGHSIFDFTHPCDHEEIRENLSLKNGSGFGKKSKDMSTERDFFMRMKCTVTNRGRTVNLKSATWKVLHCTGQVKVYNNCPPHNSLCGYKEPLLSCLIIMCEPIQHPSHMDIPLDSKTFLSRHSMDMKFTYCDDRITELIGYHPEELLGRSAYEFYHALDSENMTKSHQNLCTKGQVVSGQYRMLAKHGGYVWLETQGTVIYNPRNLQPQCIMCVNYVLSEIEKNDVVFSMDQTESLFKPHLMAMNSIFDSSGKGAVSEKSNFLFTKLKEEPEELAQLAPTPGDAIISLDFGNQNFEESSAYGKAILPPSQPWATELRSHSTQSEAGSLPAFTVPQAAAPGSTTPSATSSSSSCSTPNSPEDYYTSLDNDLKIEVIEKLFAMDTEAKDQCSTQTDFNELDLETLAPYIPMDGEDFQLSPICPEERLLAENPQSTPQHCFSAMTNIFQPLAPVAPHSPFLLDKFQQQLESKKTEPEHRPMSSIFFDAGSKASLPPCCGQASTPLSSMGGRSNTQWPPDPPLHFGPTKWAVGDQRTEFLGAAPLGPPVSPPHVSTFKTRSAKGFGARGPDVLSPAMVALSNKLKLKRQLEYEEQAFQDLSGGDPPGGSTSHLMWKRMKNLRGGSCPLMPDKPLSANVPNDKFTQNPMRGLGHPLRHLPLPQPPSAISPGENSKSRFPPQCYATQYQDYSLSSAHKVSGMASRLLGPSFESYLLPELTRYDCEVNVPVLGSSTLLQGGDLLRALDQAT

Cn1nc(C(F)(F)F)cc1-c1sc(S(C)(=O)=O)c2c1CCC(F)(F)[C@H]2O was tested, and the IC50 [1] was > 1000 nM and the IC50 [2] was > 1000 nM.
